Measured values: patent US9969973B2, “Methods and compositions for cell attachment and cultivation on planar substrates” (Janssen Biotech, Inc., priority 2008, dated 2018)

Columns and labels:
[1] = system: human embryonic stem cell line H1; assay: Attachment of human embryonic stem cell line H1 to planar substrates of Table 1, with or without H-1152; assay type: cell-based
Procedure: Prior to testing, cells of the human embryonic stem cell line H1 cells were expanded on tissue culture plates coated with a 1:30 dilution of growth factor-reduced MATRIGEL®. Cells were seeded onto 100 mm culture dishes in 10 ml MEF conditioned media supplemented with 20 ng/ml bFGF (MEF-CM/bFGF). The cells were cultured at 37° C. in a humidified with a 5% CO2 atmosphere. The media was changed everyday with fresh MEF-CM/bFGF. Once the cells reached approximately 80% confluence, the cells were passaged by treatment with 1 mg/ml LIBERASE for 5 minutes at 37° C. The digestion was stopped by removing enzyme from the dish and rinsing the cells with MEF-CM/bFGF. The cells were collected by manual scraping in 10 ml MEF-CM/bFGF and transferred to a 50-ml conical tube. The cells were centrifuged at 200×g (1000 rpm) on a tabletop centrifuge to form a pellet. […]
Cells of the human embryonic stem cell line H1 were seeded onto the various planar substrates set forth in Table 1, at a density of 100,000 cells/cm^2. […] The effect of the Rho kinase inhibitor H-1152 on the attachment of the cells to the planar substrates was determined 3 μM H-1152 was added to the medium used to seed the cells. […] The cells were then stained with 1% hematoxylin, and the number of cells was determined via light microscopy. […]

[2] = system: human embryonic stem cell line H1; assay: Attachment of H1 cells to polycarbonate Membrane No. 7 with H-1152 concentration series; assay type: cell-based; conditions: 24 hours
Procedure: In a separate experiment, the effect of the Rho kinase inhibitor H-1152 on the attachment of cells of the human embryonic stem cell line H1 to Membrane No. 7 was determined. The cells were seeded on a planar substrate comprising polycarbonate membranes (membrane No. 7) at a density of 150,000 cells/cm^2 in MEF-CM containing 20 ng/ml bFGF. The Rho Kinase inhibitor H-1152 was added to the culture medium at concentration of 0, 0.03, 0.1, 0.3, 1, and 3 μM. After 24 hours, the cells on the membrane were fixed with 4% paraformaldehyde, rinsed with PBS, air dried, stained with crystal violet dye. The number of cells was determined via light microscopy. Wells containing vehicle were included as a control.

[3] = system: human embryonic stem cell line H1; assay: Detachment of H1 cells from polycarbonate Membrane No. 9 after removal of H-1152; assay type: cell-based; conditions: 3 μM for 24 hr, then 24 hours without
Procedure: Cells of the human embryonic stem cell line H1 were seeded on to a planar substrate comprising polycarbonate (Membrane No. 9) at a density of 100,000 cells/cm^2, in MEF conditioned medium containing 20 ng/ml bFGF and 3 μM of the Rho kinase inhibitor H-1152. The cells were cultured for 24 hr. After this time, the culture medium was replaced with MEF conditioned medium containing 20 ng/ml bFGF, lacking H-1152. After 24 hours, the cells on the membrane were fixed with 4% paraformaldehyde, rinsed with PBS, air dried, stained with crystal violet dye. The number of cells was determined via light microscopy. Wells containing H-1152 were included as a control.

[4] = system: human embryonic stem cell line H1; assay: Effect of porosity and Rho kinase inhibition on attachment of H1 cells (Membranes No. 10 and 11); assay type: cell-based
Procedure: Cells of the human embryonic stem cell line H1 at passage 42 were seeded onto the following planar substrates: Membrane No. 10 (pore size 0.4 μm); and Membrane No. 11 (pore size 3 μm). Cells were seeded at a density of 100,000 cells/cm^2, in MEF conditioned medium containing 20 ng/ml bFGF. The effect of Rho kinase inhibition on the attachment of the cells to the planar substrates was also examined. The cell culture medium was supplemented with 0.3 μM H-1152. After 24 hours, the culture medium was replaced with MEF conditioned medium containing 20 ng/ml bFGF, lacking H-1152. After another 24 hours culture, the cells on the membrane were fixed with 4% paraformaldehyde, rinsed with PBS, air dried, stained with crystal violet dye. Wells containing 1 μM H-1152 were included as a control. The number of cells was determined via light microscopy. Wells containing vehicle were included as a control.

[5] = system: human embryonic stem cell line H9; assay: Attachment of H9 cells to mixed cellulose ester membrane No. 1 with Y26732; assay type: cell-based; conditions: for Effect of Y26732 on attachment of H9 cells: 24 hours
Procedure: Cells of the human embryonic stem cell line H9 were cultured on MATRIGEL® coated dishes prior to experimental manipulation. Cells were seeded a mixed cellulose ester membrane (membrane No. 1) at a density of 150,000 cells/cm^2 in MEF conditioned medium. The planar substrate lacked an adlayer and a fibroblast feeder cell layer. The effect of the Rho Kinase inhibitor treatment on the attachment to the planar substrate was examined Cells were treated with 0, 10, or 20 μM Y26732. After 24 hours, the cells were fixed with 4% paraformaldehyde, rinsed with PBS, air dried, stained with crystal violet dye. The number of cells was determined via light microscopy. Wells containing vehicle were included as a control.

[6] = system: human embryonic stem cell line H9; assay: Attachment of H9 cells to polycarbonate Membrane No. 7 with Y26732; assay type: cell-based; conditions: 24 hours
Procedure: Cells of the human embryonic stem cell line H9 were seeded onto a planar substrate comprising polycarbonate (Membrane No. 7) at a density of 150,000 cells/cm^2 in MEF conditioned medium. The effect of Rho kinase inhibitor treatment on attachment was examined: The Rho Kinase inhibitor Y26732 was added to the culture medium at concentration of 0, 10, or 20 μM. After 24 hours, the cells on the membrane were fixed with 4% paraformaldehyde at room temperature, rinsed with PBS, air dried, stained with crystal violet dye. The number of cells was determined via light microscopy. Wells containing vehicle were included as a control.

[7] = system: dissociated human embryonic stem cells; conditions: serum-free suspension culture; cited from earlier work
[8] = system: human embryonic stem cells; conditions: cited from earlier work

| SMILES | Effect of H-1152 on attachment of H1 cells ([1]; 3 μM H-1152, membranes No. 2, 4 and 5) | Effect of removal of H-1152 from the culture medium on attached H1 cells ([1]; membranes No. 7 and No. 12) | Attachment of H1 cells with H-1152 ([2]; 0.03 μM) | Attachment of H1 cells with H-1152 ([2]; 0.1 μM) | Attachment of H1 cells with H-1152 ([2]; 0.3 μM) | Attachment of H1 cells with H-1152 ([2]; 1 μM) | Attachment of H1 cells with H-1152 ([2]; 3 μM) | Effect of removal of H-1152 from the culture medium [3] | Need for H-1152 to maintain attachment of H1 cells ([4]; 1 μM, Membranes No. 10 and 11) | Effect of removal of H-1152 from the culture medium ([4]; Membrane No. 10 and Membrane No. 11) | Effect of Y26732 on attachment of H9 cells ([5]; 10 μM) | Effect of Y26732 on attachment of H9 cells ([5]; 20 μM) | Effect of removal of Y26732 from the culture medium ([5]; removal for 24 hr) | Effect of Y26732 on attachment of H9 cells ([6]; 10 μM) | Effect of Y26732 on attachment of H9 cells ([6]; 20 μM) | apoptosis of dissociated human ES cells [7] | attachment of human embryonic stem cells on surface modified plates [8] |
| --- | --- | --- | --- | --- | --- | --- | --- | --- | --- | --- | --- | --- | --- | --- | --- | --- | --- |
| Cc1cncc2cccc(S(=O)(=O)N3CCCNC[C@@H]3C)c12 [Membrane H-1152] | enhanced | led to detachment of H1 cells | do not attach | do not attach | attachment was observed | attachment was observed | attachment was observed | resulted in the detachment of cells | required to maintain the attachment | resulted in detachment of cells |  |  |  |  |  |  |  |
| C[C@@H](N)[C@H]1CC[C@H](C(=O)Nc2ccncc2)CC1 [Membrane Y26732] |  |  |  |  |  |  |  |  |  |  | increased the attachment | increased the attachment | did not result in the detachment | resulted in the attachment | resulted in the attachment | protected from apoptosis | enhance the attachment |
